This is an account of results in ChEMBL document CHEMBL4007485, “Examining the structure-activity relationship of benzopyran-based inhibitors of the hypoxia inducible factor-1 pathway” (Bioorg Med Chem Lett, 2017).

Each structure is given as a SMILES string.

System in one assay: not listed separately
The assay is described as follows: Inhibition of HIF-1 pathway in human LN229 cells harboring HRE-AP by alkaline phosphatase reporter gene assay. The settings on record: LN-229. Type of assay: cell-based.
In general, IC50 refers to the concentration at which inhibition is half-maximal. `COc1ccc(S(=O)(=O)N(Cc2ccc3c(c2)C=CC(C)(C)O3)c2ccccc2)cc1OC`: the IC50 was 0.6 µM.

The next assay relates to LN-229. The assay is described as follows: Antitumor activity against human LN229 cells xenografted in nude mouse assessed as tumor growth inhibition at 60 mg/kg administered for 5 days in a week for 10 to 12 weeks relative to control. The format is functional.
Settings: not given
On the technique in general: Xenograft models place foreign cells or tissue in a host animal.
As for `COc1ccc(S(=O)(=O)N(Cc2ccc3c(c2)C=CC(C)(C)O3)c2ccccc2)cc1OC`, the “fold change (FC)” value is on record as 6.

System in the next assay: not listed separately
The assay is described as follows: Inhibition of HIF-1 pathway in human LN229 cells harboring HRE-AP assessed sa reduction in VEGF transcription pretreated for 1 hr under normoxic condition followed by 24 hrs incubation under hypoxic condition by HRE-[…] reporter gene assay. The format is cell-based. The settings on record: LN-229. (In general: A reporter such as luciferase makes a cellular process visible.)
For `COc1ccc(S(=O)(=O)N(Cc2ccc3c(c2)C=CC(C)(C)O3)c2ccccc2)cc1OC`, the half-inhibitory concentration (IC50) is 0.59 µM.

As to `COc1ccc(S(=O)(=O)N(Cc2ccc3c(c2)C=CC(C)(C)O3)C2CCCC2)cc1OC`, the IC50 turned out to be 0.5 µM.

In the case of `COc1ccc(S(=O)(=O)N(Cc2ccc3c(n2)C=CC(C)(C)O3)C2CCC2)cc1OC`, the IC50 was found to be 0.28 µM.

Consider `COc1ccc(S(=O)(=O)N(Cc2ccc3c(c2)CCC(C)(C)O3)c2ccccc2)cc1OC`, for which the IC50 amounted to 0.98 µM.

For `COc1ccc(S(=O)(=O)N(Cc2ccc([N+](=O)[O-])cc2)C2CCC2)cc1OC`, the IC50 was over 5 µM.

On to `COc1ccc(S(=O)(=O)N(Cc2ccccc2[N+](=O)[O-])C2CCC2)cc1OC`, for which the IC50 is over 5 µM.

Turning to `CC1(C)C=Cc2nc(CN(C3CCC3)S(=O)(=O)c3ccc(CBr)cc3)ccc2O1`, the IC50 was 2.5 µM.

`COc1ccc(S(=O)(=O)N(Cc2ccc3c(c2)C=CC(C)(C)O3)CC2COC2)cc1OC`: the half-maximal inhibitory concentration (IC50) was 4 µM.

With `CCOc1ccc(S(=O)(=O)N(Cc2ccc3c(c2)C=CC(C)(C)O3)C2CCC2)cc1`, the IC50 came to 4.4 µM.

Turning to `COc1ccc(S(=O)(=O)N(Cc2ccc3c(c2)C=CC(C)(C)O3)C2CCC2)cc1OC`, the IC50 amounted to 0.75 µM.

As to `COc1ccc(S(=O)(=O)N(Cc2cc3c(cc2Br)OC(C)(C)C=C3)c2ccccc2)cc1OC`, the half-inhibitory concentration (IC50) was 3.1 µM.

On to `COc1ccc(S(=O)(=O)N(Cc2ccc3c(c2)CCO3)C2CCC2)cc1OC`, for which the concentration for half-maximal inhibition (IC50) turned out to be 3.5 µM.

Take `COc1ccc(S(=O)(=O)N(Cc2ccc3c(c2)CCC(C)(C)O3)C2CCC2)cc1OC`: the IC50 was 0.39 µM.

Take `CC1(C)C=Cc2cc(CN(c3ccccc3)S(=O)(=O)c3ccc(OC(F)(F)F)cc3)ccc2O1`: the half-inhibitory concentration (IC50) is over 5 µM.

With `COc1ccc(S(=O)(=O)N(Cc2ccc3c(n2)CCC(C)(C)O3)C2CCC2)cc1`, the IC50 came to 1.2 µM.

Turning to `CCOc1ccc(S(=O)(=O)N(Cc2ccc3c(c2)C=CC(C)(C)O3)C2CCCC2)cc1`, the IC50 is over 5 µM.

`COc1ccc(CCN(Cc2ccc3c(n2)C=CC(C)(C)O3)S(=O)(=O)c2ccc(OC)c(OC)c2)cc1OC`: the half-maximal inhibitory concentration (IC50) is over 5 µM.

As for `COc1ccc(S(=O)(=O)N(Cc2ccc3c(c2)C=CC(C)(C)O3)C2CCCC2)c(OC)c1`, the concentration for half-maximal inhibition (IC50) came to 1.5 µM.

Consider `CC1(C)C=Cc2cc(CN(C3CCC3)S(=O)(=O)c3ccc(Br)cc3)ccc2O1`, for which the half-inhibitory concentration (IC50) is over 5 µM.

For `COc1ccc(S(=O)(=O)N(Cc2ccc3c(c2)OCO3)c2ccccc2)cc1OC`, the IC50 is over 5 µM.

Regarding `COc1ccc(S(=O)(=O)N(Cc2ccc(CN3CCOCC3)cc2)C2CCC2)cc1OC`, the IC50 came out at 1 µM.

As to `COc1ccc(S(=O)(=O)N(Cc2cc(C)c3c(c2)C=CC(C)(C)O3)c2ccccc2)cc1OC`, the IC50 amounted to 3.2 µM.

For the molecule `COc1ccc(CN(C2CCC2)S(=O)(=O)c2ccc(OC)c(OC)c2)cc1`, the IC50 worked out at 3.9 µM.

With `CC1(C)C=Cc2nc(CN(C3CCC3)S(=O)(=O)c3ccc(OC(F)(F)F)cc3)ccc2O1`, the IC50 came to 4 µM.

Take `CC1(C)C=Cc2cc(CN(C3CCC3)S(=O)(=O)c3ccc(F)c(F)c3)ccc2O1`: the IC50 was found to be 4.6 µM.

With `COc1cccc(S(=O)(=O)N(Cc2ccc3c(c2)C=CC(C)(C)O3)c2ccccc2)c1`, the half-maximal inhibitory concentration (IC50) is 1 µM.

With `COc1ccc(CN(C2CCC2)S(=O)(=O)c2ccc(OC)c(OC)c2)c(OC)c1`, the IC50 was over 5 µM.

Consider `COc1ccc(S(=O)(=O)N(Cc2ccc[nH]2)C2CCC2)cc1OC`, for which the IC50 is over 5 µM.

Regarding `COc1ccc(S(=O)(=O)N(Cc2ccc3c(c2)CCC(C)(C)O3)c2ccccc2)cc1`, the IC50 was determined as 3.2 µM.

Take `COc1ccc(S(=O)(=O)N(Cc2cccc3c2OC(C)(C)C=C3)c2ccccc2)cc1OC`: the IC50 amounted to 1.8 µM.

Turning to `COc1ccc(S(=O)(=O)N(Cc2ccc3c(c2)CCC(C)(C)O3)CC2COC2)cc1OC`, the IC50 was over 5 µM.

With `CC1(C)C=Cc2cc(CN(c3ccccc3)S(=O)(=O)c3ccc(C#N)cc3)ccc2O1`, the half-maximal inhibitory concentration (IC50) is over 5 µM.

Regarding `CC1(C)C=Cc2cc(CN(C3CCC3)S(=O)(=O)c3ccc(OC(F)(F)F)cc3)ccc2O1`, the half-inhibitory concentration (IC50) was over 5 µM.

Turning to `COc1ccc(S(=O)(=O)N(Cc2ccc3nonc3c2)c2ccccc2)cc1OC`, the IC50 was over 5 µM.

As to `COc1ccc(S(=O)(=O)N(Cc2ccc3c(c2)OCO3)C2CCC2)cc1OC`, the IC50 came to 1.3 µM.

As to `COc1ccc(S(=O)(=O)N(Cc2ccccc2)C2CCC2)cc1OC`, the IC50 was over 5 µM.

With `COc1ccc(S(=O)(=O)N(Cc2ccc3c(n2)CCC(C)(C)O3)C2CCC2)cc1OC`, the IC50 stood at 0.25 µM.

As for `CC1(C)C=Cc2cc(CN(C3CCCC3)S(=O)(=O)c3ccc(CBr)cc3)ccc2O1`, the IC50 stood at 3 µM.

Consider `COc1ccc(S(=O)(=O)N(Cc2cc3c(cc2C)OC(C)(C)C=C3)c2ccccc2)cc1OC`, for which the half-inhibitory concentration (IC50) worked out at 3.3 µM.

In the case of `COc1ccc(S(=O)(=O)N(Cc2ccc3c(n2)C=CC(C)(C)O3)C2CCC2)cc1`, the IC50 turned out to be 1.8 µM.

For the molecule `Cc1noc(C)c1S(=O)(=O)N(Cc1ccc2c(c1)C=CC(C)(C)O2)C1CCC1`, the IC50 was over 5 µM.

For the molecule `CC1(C)C=Cc2cc(CN(c3ccccc3)S(=O)(=O)c3ccc(F)c(F)c3)ccc2O1`, the IC50 is over 5 µM.
